Drawing on ChEMBL document CHEMBL3132769, “Fragment growing to retain or alter the selectivity of anchored kinase hinge-binding fragments” (Medchemcomm, 2014), this text covers inhibition for nine molecules.

For experiment [1], the target named is Protein kinase C alpha type (Homo sapiens) (UniProt P17252). The experiment can be described thus: Inhibition of human truncated PKC alpha expressed in baculovirus assessed as substrate phosphorylation using fluorescence-labelled peptides as substrate at 2 uM after 90 mins by microfluidic peptide phosphorylation assay.
In experiment [2] the target is Serine/threonine-protein kinase pim-1 (Homo sapiens) (UniProt P11309). The experiment can be described thus: Inhibition of human full length PIM1 expressed in baculovirus assessed as substrate phosphorylation using fluorescence-labelled peptides as substrate at 0.1 uM after 90 mins by microfluidic peptide phosphorylation assay.
Experiment [3] deals with MAP kinase-activated protein kinase 2 (Homo sapiens) (UniProt P49137). The conditions noted are these: 0.1 uM.
Description: Inhibition of human full length MAPKAPK2 expressed in baculovirus assessed as substrate phosphorylation using fluorescence-labelled peptides as substrate at 0.1 uM after 90 mins by microfluidic peptide phosphorylation assay
The test system of experiment [4] is Fibroblast growth factor receptor 2 (Homo sapiens), P21802 [N549H]. As to the kind of experiment: Inhibition of human FGFR2 N549H mutant catalytic domain expressed in baculovirus assessed as substrate phosphorylation using fluorescence-labelled peptides as substrate at 0.06 uM after 90 mins by microfluidic peptide phosphorylation assay.
Experiment [5] deals with MAP kinase p38 (Homo sapiens) (UniProt O15264+Q15759+Q16539+P53778). As to the kind of experiment: Inhibition of human full length p38 beta2 expressed in Escherichia coli cell assessed as substrate phosphorylation using fluorescence-labelled peptides as substrate at 0.06 uM after 90 mins by microfluidic peptide phosphorylation assay.
The target of experiment [6] is T1, Aurora kinase C (Homo sapiens) (UniProt Q9UQB9).
T1 sequence (whole entry): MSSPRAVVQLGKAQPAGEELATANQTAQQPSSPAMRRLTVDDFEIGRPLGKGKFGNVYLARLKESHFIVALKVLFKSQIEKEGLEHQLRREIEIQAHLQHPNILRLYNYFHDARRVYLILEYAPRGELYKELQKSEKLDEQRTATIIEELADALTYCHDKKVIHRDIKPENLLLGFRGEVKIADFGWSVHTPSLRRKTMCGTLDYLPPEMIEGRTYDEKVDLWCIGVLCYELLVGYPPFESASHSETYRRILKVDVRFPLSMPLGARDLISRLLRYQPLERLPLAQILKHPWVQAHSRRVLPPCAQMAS
The experiment can be described thus: Inhibition of human full length AurC expressed in baculovirus assessed as substrate phosphorylation using fluorescence-labelled peptides as substrate at 9 uM after 90 mins by microfluidic peptide phosphorylation assay.

Experiment [7] deals with Receptor-type tyrosine-protein kinase FLT3 (Homo sapiens) (UniProt P36888). As to the kind of experiment: Inhibition of human FLT3 catalytic domain expressed in baculovirus assessed as substrate phosphorylation using fluorescence-labelled peptides as substrate at 9 uM after 90 mins by microfluidic peptide phosphorylation assay.
Experiment [8] has as its target Fibroblast growth factor receptor 2 (Homo sapiens) (UniProt P21802). The experiment can be described thus: Inhibition of human FGFR2 catalytic domain expressed in baculovirus assessed as substrate phosphorylation using fluorescence-labelled peptides as substrate at 9 uM after 90 mins by microfluidic peptide phosphorylation assay.
Experiment [9] addresses T2, Serine/threonine-protein kinase Sgk1 (Homo sapiens) (UniProt O00141).
T2 sequence (whole entry): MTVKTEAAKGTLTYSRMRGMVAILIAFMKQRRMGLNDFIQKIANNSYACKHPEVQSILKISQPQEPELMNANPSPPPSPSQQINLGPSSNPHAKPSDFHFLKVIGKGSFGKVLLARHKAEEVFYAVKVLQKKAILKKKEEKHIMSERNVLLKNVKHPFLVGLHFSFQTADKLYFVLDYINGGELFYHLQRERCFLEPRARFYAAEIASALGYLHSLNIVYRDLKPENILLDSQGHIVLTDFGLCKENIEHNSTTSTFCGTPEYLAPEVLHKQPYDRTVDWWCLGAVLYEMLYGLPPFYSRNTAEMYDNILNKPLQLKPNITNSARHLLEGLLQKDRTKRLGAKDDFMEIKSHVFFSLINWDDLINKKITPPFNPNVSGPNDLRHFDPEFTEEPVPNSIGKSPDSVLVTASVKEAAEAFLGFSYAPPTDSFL
As to the kind of experiment: Inhibition of human truncated SGK1 expressed in baculovirus assessed as substrate phosphorylation using fluorescence-labelled peptides as substrate at 8 uM after 90 mins by microfluidic peptide phosphorylation assay.

Experiment [10] deals with Mitogen-activated protein kinase 1 (Homo sapiens) (UniProt P28482). As to the kind of experiment: Inhibition of human full length ERK2 expressed in Escherichia coli cell assessed as substrate phosphorylation using fluorescence-labelled peptides as substrate at 70 uM after 90 mins by microfluidic peptide phosphorylation assay.
Experiment [11] addresses Rho-associated protein kinase 2 (Homo sapiens) (UniProt O75116). The experiment can be described thus: Inhibition of human ROCK2 catalytic domain expressed in baculovirus assessed as substrate phosphorylation using fluorescence-labelled peptides as substrate at […] after 90 mins by microfluidic peptide phosphorylation assay.
Experiment [12] has as its target T3, Cytoplasmic tyrosine-protein kinase BMX (Homo sapiens) (UniProt P51813).
T3 sequence (whole entry): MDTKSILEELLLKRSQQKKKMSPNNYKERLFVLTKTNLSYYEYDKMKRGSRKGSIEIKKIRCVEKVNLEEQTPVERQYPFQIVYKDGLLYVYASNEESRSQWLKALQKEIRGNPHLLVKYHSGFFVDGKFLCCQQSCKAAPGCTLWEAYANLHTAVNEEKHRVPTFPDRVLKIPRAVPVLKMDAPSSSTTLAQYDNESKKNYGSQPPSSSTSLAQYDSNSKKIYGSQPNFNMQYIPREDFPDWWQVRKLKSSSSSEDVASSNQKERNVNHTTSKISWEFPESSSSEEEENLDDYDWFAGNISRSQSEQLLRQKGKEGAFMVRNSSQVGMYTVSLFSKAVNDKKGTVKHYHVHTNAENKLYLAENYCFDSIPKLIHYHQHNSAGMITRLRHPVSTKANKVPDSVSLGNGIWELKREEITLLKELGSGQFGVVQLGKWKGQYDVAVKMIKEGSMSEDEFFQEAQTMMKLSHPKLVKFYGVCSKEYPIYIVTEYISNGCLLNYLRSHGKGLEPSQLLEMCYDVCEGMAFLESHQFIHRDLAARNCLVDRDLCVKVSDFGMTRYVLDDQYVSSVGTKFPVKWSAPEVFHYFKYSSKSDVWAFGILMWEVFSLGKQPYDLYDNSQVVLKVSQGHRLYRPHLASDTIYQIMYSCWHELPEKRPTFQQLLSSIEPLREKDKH
As to the kind of experiment: Inhibition of human full length BMX expressed in baculovirus assessed as substrate phosphorylation using fluorescence-labelled peptides as substrate at 420 uM after 90 mins by microfluidic peptide phosphorylation assay.

In experiment [13] the test system is Tyrosine-protein kinase ABL1 (Homo sapiens), P00519 [H396P]. As to the kind of experiment: Inhibition of human truncated ABL H396P mutant expressed in baculovirus assessed as substrate phosphorylation using fluorescence-labelled peptides as substrate at 420 uM after 90 mins by microfluidic peptide phosphorylation assay.
In experiment [14] the target is Epidermal growth factor receptor (Homo sapiens) (UniProt P00533). The experiment can be described thus: Inhibition of human EGFR catalytic domain expressed in baculovirus assessed as substrate phosphorylation using fluorescence-labelled peptides as substrate at 1000 uM after 90 mins by microfluidic peptide phosphorylation assay.
Chain of Epidermal growth factor receptor (Homo sapiens) (P00533 whole entry, the tested form may be a part): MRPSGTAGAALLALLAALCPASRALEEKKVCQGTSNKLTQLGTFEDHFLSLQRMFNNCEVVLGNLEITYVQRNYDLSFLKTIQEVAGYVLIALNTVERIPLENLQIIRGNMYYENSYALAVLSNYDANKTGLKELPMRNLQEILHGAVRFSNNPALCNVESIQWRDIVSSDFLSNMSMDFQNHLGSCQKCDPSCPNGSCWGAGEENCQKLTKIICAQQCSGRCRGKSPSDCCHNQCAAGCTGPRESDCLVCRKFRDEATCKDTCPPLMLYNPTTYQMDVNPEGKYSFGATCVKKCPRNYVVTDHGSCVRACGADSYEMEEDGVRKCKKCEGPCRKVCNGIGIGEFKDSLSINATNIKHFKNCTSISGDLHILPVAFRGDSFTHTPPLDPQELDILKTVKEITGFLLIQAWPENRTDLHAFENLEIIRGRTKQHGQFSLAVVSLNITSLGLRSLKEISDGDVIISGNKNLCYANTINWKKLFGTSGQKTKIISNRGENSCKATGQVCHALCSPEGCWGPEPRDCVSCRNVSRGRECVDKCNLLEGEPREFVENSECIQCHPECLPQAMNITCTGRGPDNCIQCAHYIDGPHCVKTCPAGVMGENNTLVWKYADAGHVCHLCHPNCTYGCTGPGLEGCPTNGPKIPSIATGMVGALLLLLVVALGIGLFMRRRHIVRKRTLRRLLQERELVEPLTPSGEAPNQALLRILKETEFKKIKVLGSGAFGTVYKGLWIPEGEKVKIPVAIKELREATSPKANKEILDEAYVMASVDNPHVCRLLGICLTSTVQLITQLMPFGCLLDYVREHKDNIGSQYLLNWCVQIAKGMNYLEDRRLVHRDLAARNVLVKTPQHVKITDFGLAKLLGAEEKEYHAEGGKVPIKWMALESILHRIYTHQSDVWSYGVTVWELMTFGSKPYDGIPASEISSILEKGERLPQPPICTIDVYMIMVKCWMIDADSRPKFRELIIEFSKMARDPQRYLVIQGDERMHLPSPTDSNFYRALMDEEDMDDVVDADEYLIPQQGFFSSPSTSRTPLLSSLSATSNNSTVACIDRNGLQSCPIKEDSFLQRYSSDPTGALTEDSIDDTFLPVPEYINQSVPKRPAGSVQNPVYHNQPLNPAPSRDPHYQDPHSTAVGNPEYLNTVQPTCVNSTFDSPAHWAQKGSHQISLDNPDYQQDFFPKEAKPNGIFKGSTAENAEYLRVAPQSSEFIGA

Chain of MAP kinase p38 (Homo sapiens) (O15264 whole entry, looked up): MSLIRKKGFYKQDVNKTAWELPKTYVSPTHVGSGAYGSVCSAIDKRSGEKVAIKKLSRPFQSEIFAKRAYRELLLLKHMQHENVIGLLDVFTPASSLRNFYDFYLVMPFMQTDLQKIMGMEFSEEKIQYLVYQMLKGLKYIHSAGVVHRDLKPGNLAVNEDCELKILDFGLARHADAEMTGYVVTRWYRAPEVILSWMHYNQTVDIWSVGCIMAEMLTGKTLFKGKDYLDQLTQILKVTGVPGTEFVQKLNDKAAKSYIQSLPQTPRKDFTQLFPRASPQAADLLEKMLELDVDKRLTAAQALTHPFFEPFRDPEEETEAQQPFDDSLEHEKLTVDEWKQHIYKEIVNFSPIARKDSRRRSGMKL
Chain of MAP kinase p38 (Homo sapiens) (P53778 whole entry, looked up): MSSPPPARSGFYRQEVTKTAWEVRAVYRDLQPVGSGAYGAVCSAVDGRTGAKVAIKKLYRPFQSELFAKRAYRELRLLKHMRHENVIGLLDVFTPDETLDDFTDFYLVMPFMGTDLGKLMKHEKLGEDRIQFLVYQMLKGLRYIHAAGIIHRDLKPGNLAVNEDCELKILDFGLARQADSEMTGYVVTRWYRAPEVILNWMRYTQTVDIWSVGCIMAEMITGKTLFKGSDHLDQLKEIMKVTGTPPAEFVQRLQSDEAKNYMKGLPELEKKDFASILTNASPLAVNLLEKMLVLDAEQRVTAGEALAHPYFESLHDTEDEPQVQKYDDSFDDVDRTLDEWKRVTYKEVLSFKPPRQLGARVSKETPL
Chain of MAP kinase p38 (Homo sapiens) (Q15759 whole entry, looked up): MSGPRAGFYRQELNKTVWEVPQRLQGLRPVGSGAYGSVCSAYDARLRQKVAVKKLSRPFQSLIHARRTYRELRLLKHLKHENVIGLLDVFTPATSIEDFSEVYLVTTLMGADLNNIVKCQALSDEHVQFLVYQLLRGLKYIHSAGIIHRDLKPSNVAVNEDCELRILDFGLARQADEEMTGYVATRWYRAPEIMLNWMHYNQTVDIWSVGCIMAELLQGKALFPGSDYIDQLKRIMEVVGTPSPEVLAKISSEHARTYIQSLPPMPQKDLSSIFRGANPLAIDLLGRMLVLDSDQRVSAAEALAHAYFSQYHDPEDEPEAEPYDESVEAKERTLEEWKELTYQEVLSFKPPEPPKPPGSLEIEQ
Chain of MAP kinase p38 (Homo sapiens) (Q16539 whole entry, looked up): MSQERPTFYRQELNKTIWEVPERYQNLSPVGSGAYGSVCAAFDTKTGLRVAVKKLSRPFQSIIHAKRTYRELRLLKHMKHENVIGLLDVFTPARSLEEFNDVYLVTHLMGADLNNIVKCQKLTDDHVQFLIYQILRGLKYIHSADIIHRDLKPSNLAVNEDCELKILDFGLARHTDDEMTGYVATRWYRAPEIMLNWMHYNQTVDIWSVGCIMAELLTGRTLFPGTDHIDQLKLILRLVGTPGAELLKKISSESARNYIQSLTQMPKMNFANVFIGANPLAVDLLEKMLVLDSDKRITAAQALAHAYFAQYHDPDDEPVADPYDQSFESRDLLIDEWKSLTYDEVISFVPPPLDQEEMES
Chain of Fibroblast growth factor receptor 2 (Homo sapiens) (P21802 22-821 limits assumed): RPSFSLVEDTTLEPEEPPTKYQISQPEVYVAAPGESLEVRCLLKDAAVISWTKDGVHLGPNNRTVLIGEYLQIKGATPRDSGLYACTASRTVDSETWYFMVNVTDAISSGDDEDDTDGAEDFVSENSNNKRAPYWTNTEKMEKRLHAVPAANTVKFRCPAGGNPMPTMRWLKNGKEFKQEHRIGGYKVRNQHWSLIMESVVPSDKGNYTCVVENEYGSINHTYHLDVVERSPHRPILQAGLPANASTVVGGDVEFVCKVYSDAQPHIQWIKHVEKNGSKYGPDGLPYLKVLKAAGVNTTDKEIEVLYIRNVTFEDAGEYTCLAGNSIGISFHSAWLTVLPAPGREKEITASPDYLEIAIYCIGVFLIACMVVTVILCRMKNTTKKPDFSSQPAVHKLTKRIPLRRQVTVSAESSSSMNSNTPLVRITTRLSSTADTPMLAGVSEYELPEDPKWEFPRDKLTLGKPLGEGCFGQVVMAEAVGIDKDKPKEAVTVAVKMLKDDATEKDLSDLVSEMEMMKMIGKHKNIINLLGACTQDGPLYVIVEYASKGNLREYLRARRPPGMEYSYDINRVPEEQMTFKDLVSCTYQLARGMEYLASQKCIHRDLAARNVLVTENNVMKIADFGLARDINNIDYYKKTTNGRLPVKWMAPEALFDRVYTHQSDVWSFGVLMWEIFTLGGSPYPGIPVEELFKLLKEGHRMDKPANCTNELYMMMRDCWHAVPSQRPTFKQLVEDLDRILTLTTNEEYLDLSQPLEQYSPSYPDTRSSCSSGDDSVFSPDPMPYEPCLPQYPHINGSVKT
Chain of MAP kinase-activated protein kinase 2 (Homo sapiens) (P49137 whole entry, looked up, the tested form may be a part): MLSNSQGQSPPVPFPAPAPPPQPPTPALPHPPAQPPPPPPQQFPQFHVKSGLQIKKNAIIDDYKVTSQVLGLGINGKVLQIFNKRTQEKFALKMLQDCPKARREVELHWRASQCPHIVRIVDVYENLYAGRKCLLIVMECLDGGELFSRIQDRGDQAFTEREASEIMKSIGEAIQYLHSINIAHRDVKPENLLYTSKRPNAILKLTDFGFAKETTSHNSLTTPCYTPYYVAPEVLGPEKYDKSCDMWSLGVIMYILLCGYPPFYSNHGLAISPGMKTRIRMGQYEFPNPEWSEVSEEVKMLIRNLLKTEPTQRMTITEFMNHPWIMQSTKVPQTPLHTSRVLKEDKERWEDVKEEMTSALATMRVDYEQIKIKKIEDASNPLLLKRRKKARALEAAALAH
Chain of Mitogen-activated protein kinase 1 (Homo sapiens) (P28482 whole entry, the tested form may be a part): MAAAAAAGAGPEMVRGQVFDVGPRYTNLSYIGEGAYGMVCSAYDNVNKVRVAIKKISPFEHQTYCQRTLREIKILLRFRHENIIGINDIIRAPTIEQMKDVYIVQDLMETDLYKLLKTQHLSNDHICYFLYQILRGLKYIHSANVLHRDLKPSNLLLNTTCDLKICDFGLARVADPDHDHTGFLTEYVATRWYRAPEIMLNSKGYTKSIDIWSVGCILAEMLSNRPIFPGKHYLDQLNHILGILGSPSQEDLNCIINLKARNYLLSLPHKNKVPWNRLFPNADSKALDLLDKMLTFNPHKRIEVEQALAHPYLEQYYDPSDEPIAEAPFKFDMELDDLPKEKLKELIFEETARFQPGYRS

Consider `NC1CCN(c2ncnc3[nH]ccc23)CC1`, for which the inhibition in experiment [1] turned out to be 18%. In the case of `C[C@H](CN(C)C)Oc1nc(Nc2cc3cccc(Cl)c3cn2)cnc1C#N`, the inhibition in experiment [2] stood at 9.5%; in experiment [3], 0%.

In the case of `NC1(Cc2ccc(Cl)cc2)CCN(c2ncnc3[nH]ccc23)CC1`, the values for the inhibition in experiment [4] and in experiment [5] were 5% and 9%, respectively. In the case of `NCC1CN(c2ncnc3[nH]c4cnccc4c23)CCO1` (centres undefined), the inhibition in [6] amounted to 11.5%; in experiment [7], 89.5%; in experiment [8], 30%.

Consider `NCC1CCN(c2ncnc3[nH]ccc23)CC1`, for which the inhibition in experiment [9] came out at 59%. As for `CNCc1ccc(-c2ncnc3[nH]cnc23)cc1`, in experiment [10], the inhibition was determined as 29%. As for `COC(=O)c1cnc(Nc2cnc(C#N)cn2)cc1NCC1CCNCC1`, the inhibition in experiment [11] worked out at 2%. On to `c1nc(N2CCOCC2)c2nc[nH]c2n1`, for which the inhibition worked out at 62.5% in experiment [12] and 71% in experiment [13].

Take `c1cnc2[nH]ccc2c1`: in experiment [14], the inhibition was 13.5%.
